The subject of data set [1] is B16F0 cells. The experiment in a line: IC50% study. In kind it is cell-based. How it is done:
B16F0 cells (obtained from American Type Culture Collection, ATCC) were split into 96 well plates and incubated at 37° C. under 5% CO2. After 24 hours, BMPC-Pt was added to each well. The fluorescence of each well was measured using two wavelength filters (450 nm and 528 nm) before and several times after BMPC-Pt was added (24, 48, and 72 hours). Using measurements, the fluorescence intensity net increase ratio was calculated and the results are summarized in Table 3 and shown in FIGS. 19 and 20.

Data set [2] deals with B16F0 cells. The experiment in a line: IC50% study. In kind it is cell-based. As to conditions: 96 hours.
In data set [3] the test system is xenografs of human PC-3 prostate cancer. The experiment in a line: DOX-PTD anti-tumor treatment in vivo study, tumor size. Also noted: species or system nu/nu athymic mice. To be noted: intra-tumor administration, Dosedox=0.2 mg/kg, FIGS. 14 and 15. How it is done:
(§1) Male nu/nu athymic mice (6-7 weeks old; 22-25 g; available from Charles River Laboratories) were inoculated subcutaneously on the right flank with 1.1×10^6 Hela and PC-3 cells to obtain xenografs of human PC-3 prostate cancer.
(§2) Approximately 4 days after inoculation, the four groups of five mice were administered a solution containing saline, doxorubicin, PTD, or DOX-PTD (e.g., 0.103×10^−4 mol) via intra-tumor injection or intravenously. The solution was administered once a week until the total volume administered equaled ˜50 μL/mouse. Size measurements of the tumor and the body weight of the mice were taken every other day. A saline solution was used as a control.

In the next data set the test system is PC-3 cells. The experiment in a line: Cytotoxicity assay, live/dead cell staining. The data set is classed as cell-based. How it is done:
Prostate cancer cell lines (PC-3 cells) were maintained in 12-F medium containing 10% fetal bovine serum, 100 units/mL penicillin and 100 μg/mL streptomycin at 37° C. under 5% CO2 and 100% humid condition. To avoid confluency due to the short doubling time (˜20 hrs), the cells were split every 3-4 days.
The PC-3 cells were plated in 6-well tissue culture plates (5×10^5 cells/well) and incubated overnight in 12-F medium with 10% FBS. For each well, an aliquot of 200 μl Doxorubicin-protein transduction domain (DOX-PTD) solution at same mole concentration (0.2 mg/per well) was added. The cells were then incubated at 37° C. in 5% CO2 for 2 hrs.
After incubation, the live and dead cells were counted using cell staining analysis according to the protocol provided by the manufacturer. The dead cells stain red while the live cells stain green. The green and red fluorescent signals from the cells were observed under a fluorescent microscope (Olympus, filter 570 nm-605). The percentage of live cells in the cultures was determined from counts of three fields.

Data set [4] can be described thus: Body weight changes after intra-tumor administration. In kind it is in vivo, nu/nu athymic mice. To be noted: 21 days after intra-tumor administration. How it is done: as §1, §2
The subject of the next data set is mammalian cells. The experiment in a line: MTT cytotoxicity study. In kind it is cell-based. How it is done: (§3) Cytotoxicity of PTD carriers were evaluated in mammalian cells using 3-[4,5 dimethylthiazol-2-yl]-2,5-diphenyltetrazolium bromide (MTT). After inducing cytotoxicity (˜4 hrs) by routine methods, 10 μl of MTT solution (5.0 mg/ml in PBS, Sigma) was added to each well, and incubated at 37° C. for 3 hrs. The medium was then removed and 200 μl dimethyl sulfoxide (DMSO) was added into each well to dissolve the formazan crystals produced by living cells. The absorbance of the solution was measured at 570 nm. Cell viabilities were calculated using the equation: Viability (%)={Abs570 (sample)/Abs570 control}. A control reaction was run under the same conditions except for the addition of Dox-PTD.

The nature of another data set: MTT cytotoxicity study. The data set is classed as cell-based. To be noted: mammalian cells, FIG. 13, read-out: cells survived (viability). The procedure: as §3
Another data set has as its system Hela 705 cells. The experiment in a line: Transduction assay (in vitro), fluorescence microscope. As to conditions: 30 min at 37° C., Streptavidin-FITC, FIG. 4. The data set is classed as cell-based. How it is done:
The transduction efficiency of compound 9 from Example 1 and compound 11 from Example 2 were analyzed. Hela 705 cells were seeded at 1.5×10^4/well in 96-well plate and cultured overnight (about 70% confluenced). The media was discarded and the cells rinsed with PBS. Biotin-labeled test compounds (dissolved in PBS, pH: 7.4) were applied to culture(s) and incubated for 30 min at 37° C. The media was carefully discarded and the cells rinsed with PBS. The cells were fixed in freshly prepared 4% paraformaldehyde for 10 min at 4° C. The cells were rinsed and incubated with a blocking reagent (10% BSA containing 0.5% Triton X-100 in PBS) for 30 min at 37° C. The cells were again rinsed with PBS and incubated with Streptavidin-FITC for 30 min at room temperature. The cells were then rinsed with PBS and observed under fluorescence microscope.
The transduction activity of the disulfide linked HA compounds 13 and 14 from Example 4 were tested on Hela 705 cells following the procedure as mentioned above. FITC conjugated anti-HA antibody was applied for visualization.

The next data set has as its system Mouse skin tissue. The experiment in a line: In vivo transdermal delivery assay. As to conditions: nude mice skin, 100 μl of 1 mM in PBS, 30 min, FIG. 9. How it is done: Compounds 9 and 11 from Examples 1 and 2 were tested in vivo. In vivo evaluation was conducted with a transdermal delivery assay on nude mice (NU/NU ♀). Nude mice (female, 6 weeks old, from Charles River) were anesthetized with 50 μl cocktail of Ketaset 25 mg/ml, Xylazine 5 mg/ml (i.m.). The skin was wiped with saline and a 100 μl solution of the test compounds (1 mM in PBS) was applied. A plastic ring was used to isolate the test solution and vaseline was rubbed outside of the ring. After 30 min incubation, the animal was sacrificed under deep anesthesia and the skin was removed. Mouse skin tissue was immediately embedded in OTC medium, cut into 5 μm on a cryostat and collected on slides, and stored at −70° C. The tissue was fixed in freshly prepared 4% paraformaldehyde in PBS for 10 min at 4° C. The tissue was then rinsed in PBS 2×5 min and incubated with 10% BSA containing 0.5% Triton X-100 in PBS for 30 min at 37° C. The samples were incubated with Streptavidin-FITC (diluted in 1% BSA containing 0.05% Triton X-100 in PBS) overnight at 4° C. […] The samples were rinsed twice in PBS 2×5 min and tap water and mounted with anti-fading mounting medium and observed under fluorescence microscope or confocal imaging analysis.

Numbered stars: 1 amine (or outer) side, 2 acyl side, 3 side chain; on linkers, the order of the positions; unused ones are H or OH. Side chains are listed from the residue outwards. Peptide text beside a SMILES is read from it. * marks the point of attachment. Doxorubicin(3'-N) = COc1cccc2c1C(=O)c1c(O)c3c(c(O)c1C2=O)C[C@@](O)(C(=O)CO)C[C@@H]3O[C@H]1C[C@H](N*)[C@H](O)[C@H](C)O1; Suc = O=C(CCC(=O)[*:2])[*:1] Bounds are passed on as bounds.

Consider `N.N.O=C([O-])C1(C(=O)[O-])CCC1.[Pt+2]` [Carboplatin, reference compound], for which the IC50 in the data set with B16F0 cells [1] (24 hours) stood at 110 µM; with B16F0 cells [1] (48 hours) it was 36.5 µM; with B16F0 cells [1] (72 hours) it was 24.5 µM; in the data set on B16F0 cells [2] it was 4.5 µM.

For `COc1cccc2c1C(=O)c1c(O)c3c(c(O)c1C2=O)C[C@@](O)(C(=O)CO)C[C@@H]3O[C@H]1C[C@H](NC(=O)CCC(=O)N[C@@H](CCCNC(=N)N)C(=O)N[C@@H](CCCNC(=N)N)C(=O)NCCCC[C@H](NC(=O)[C@H](CCCNC(=N)N)NC(=O)[C@H](CCCNC(=N)N)NC(C)=O)C(=O)N[C@@H](CCCNC(=N)N)C(=O)N[C@@H](CCCNC(=N)N)C(=O)N[C@@H](CCCNC(=N)N)C(=O)N[C@@H](CCCNC(=N)N)C(N)=O)[C@H](O)[C@H](C)O1` [DOX-PTD] (Ac-RRK([Arg-Arg-Suc-Doxorubicin(3'-N)])RRRR-NH2), the tumor size result in data set [3] is “increased in size less than the tumor injected with Dox alone”. Moreover, the “number of live cells” value with PC-3 cells (0.2 mg/per well, 2 hrs, FIGS. 11 and 12) is reported as “less than with Dox alone”. The “penetration into the PC-3 cells” value in the data set on PC-3 cells (inferred from live cell counts) is listed as “greater penetration into the PC-3 cells compared to Dox alone”. For the same molecule, the “body weight difference between groups” value in data set [4] was “no significant difference”. Besides, the cytotoxicity entry in the data set with mammalian cells is recorded as “extremely high”. Besides, in “MTT cytotoxicity study”, the viability was less than 40%.

As to `CC(=O)N[C@@H](CCCNC(=N)N)C(=O)N[C@@H](CCCNC(=N)N)C(=O)N[C@@H](CCCCNC(=O)[C@H](CCCNC(=N)N)NC(=O)[C@H](CCCNC(=N)N)NC(=O)CCC(=O)NC1CC(=O)[O][Pt]2([NH]C3CCCCC3[NH]2)[O]C1=O)C(=O)N[C@@H](CCCNC(=N)N)C(=O)N[C@@H](CCCNC(=N)N)C(=O)N[C@@H](CCCNC(=N)N)C(=O)N[C@@H](CCCNC(=N)N)C(N)=O` (some centres unmarked) [BMPC-Pt], the IC50 in the data set with B16F0 cells [1] (24 hours) was found to be 128 µM; with B16F0 cells [1] (48 hours), 51.6 µM; with B16F0 cells [1] (72 hours) it was 22.3 µM; in the data set with B16F0 cells [2], 12.5 µM.

Take `N=C(N)NCCCC(N)C(=O)NC(CCCNC(=N)N)C(=O)NC(CCCNC(=N)N)C(=O)NCCCCC(NC(=O)C(CCCNC(=N)N)NC(=O)C(CCCNC(=N)N)NC(=O)C(N)CCCNC(=N)N)C(=O)NCCCCC(NC(=O)C(CCCNC(=N)N)NC(=O)C(CCCNC(=N)N)NC(=O)CCCC[C@@H]1SC[C@@H]2NC(=O)N[C@@H]21)C(N)=O` (some centres unmarked) [compound 11]: the “transduction efficiency compared to vehicle (PBS)” value in the data set on Hela 705 cells is reported as “dramatic transduction efficiency”. Besides, the “transdermal delivery efficiency compared to vehicle (PBS)” value with Mouse skin tissue was “dramatic transdermal delivery efficiency”.

For the molecule `COc1cccc2c1C(=O)c1c(O)c3c(c(O)c1C2=O)C[C@@](O)(C(=O)CO)C[C@@H]3O[C@H]1C[C@H](N)[C@H](O)[C@H](C)O1` [DOX, doxorubicin, reference compound], the “body weight difference between groups” value in data set [4] was “no significant difference”.

These data come from patent US7687603B2, “Guanidinium delivery carriers” (priority 2005, dated 2010).
